Measured values as given in PubChem BioAssay AID248 (DTP/NCI, 2004).
“And” between values parts separate entries of the source, which are not always exact repeats. Equal entries are not always repeated. Toxic doses and inconclusive results are not listed. Rule as the data show it: active = T/C of 150% or more; inactive = T/C below 125%.

Tested on: L1210 leukemia ip in BDF1 mice, survival T/C
Assay: NCI In Vivo Anticancer Drug Screen. Data for tumor model L1210 Leukemia (intraperitoneal) in B6D2F1 (BDF1) mice
Conditions: endpoint: mean survival time, higher = longer survival
Procedure, shortened: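 Antitumor effect is assessed in tumor-bearing animals. Survival in the compound arm is compared with a vehicle-dosed control arm and expressed as their quotient.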

[1] = dose: 50.0 mg/kg/injection, schedule: Q01DX009 (ip), vehicle: saline
[2] = dose: 100.0 mg/kg/injection, schedule: Q01DX009 (ip), vehicle: saline
[3] = dose: 200.0 mg/kg/injection, schedule: Q01DX009 (ip), vehicle: saline
[4] = dose: 50.0 mg/kg/injection, schedule: Q04DX003 (ip), vehicle: Klucel (hydroxypropylcellulose) (HPC)
[5] = dose: 100.0 mg/kg/injection, schedule: Q01DX009 (ip), vehicle: Klucel (hydroxypropylcellulose) (HPC)
[6] = dose: 100.0 mg/kg/injection, schedule: Q04DX003 (ip), vehicle: Klucel (hydroxypropylcellulose) (HPC)
[7] = dose: 200.0 mg/kg/injection, schedule: Q01DX009 (ip), vehicle: Klucel (hydroxypropylcellulose) (HPC)
[8] = dose: 200.0 mg/kg/injection, schedule: Q04DX003 (ip), vehicle: Klucel (hydroxypropylcellulose) (HPC)
[9] = dose: 400.0 mg/kg/injection, schedule: Q01DX009 (ip), vehicle: Klucel (hydroxypropylcellulose) (HPC)
[10] = dose: 100.0 mg/kg/injection, schedule: Q04DX003 (ip), vehicle: saline
[11] = dose: 100.0 mg/kg/injection, schedule: Q04DX003 (ip), vehicle: saline with Tween-80
[12] = dose: 200.0 mg/kg/injection, schedule: Q04DX003 (ip), vehicle: saline with Tween-80
[13] = dose: 400.0 mg/kg/injection, schedule: Q04DX003 (ip), vehicle: saline with Tween-80

Measured: T/C

CC(=O)CC(C)=Nc1ccc([N+](=O)[O-])cc1.CC(=O)CC(C)=Nc1ccc([N+](=O)[O-])cc1.[Cu]
inactive: dose: 12.5 mg/kg/injection, schedule: Q01DX001 (ip), vehicle: saline with Tween-80 93 % of control | dose: 25.0 mg/kg/injection, schedule: Q01DX001 (ip), vehicle: saline with Tween-80 88 % of control | dose: 50.0 mg/kg/injection, schedule: Q01DX001 (ip), vehicle: saline with Tween-80 91 % of control

CC1=CCCC2(CCC3(C)CC32)C1(C)C (stereo not drawn)
inactive: dose: 100.0 mg/kg/injection, schedule: Q01DX009 (ip), vehicle: acetone 89 % of control | dose: 200.0 mg/kg/injection, schedule: Q01DX009 (ip), vehicle: acetone 95 % of control

Cc1ccc(N=C=S)cc1F
inactive: dose: 75.0 mg/kg/injection, schedule: Q01DX001 (ip), vehicle: other 95 % of control

O=C(CCCN1CCN(c2ccccc2)CC1)c1ccc(F)cc1
inactive: dose: 12.5 mg/kg/injection, schedule: Q01DX009 (ip), vehicle: saline 122 % of control | dose: 25.0 mg/kg/injection, schedule: Q01DX009 (ip), vehicle: saline 106 % of control | [1] 114 % of control | [2] 111 % of control | [3] 103 % of control

COc1ccc(C(=O)NO)cc1
inactive: dose: 100.0 mg/kg/injection, schedule: Q01DX009 (ip), vehicle: carboxymethylcellulose (CMC) 96 % of control | dose: 200.0 mg/kg/injection, schedule: Q01DX009 (ip), vehicle: carboxymethylcellulose (CMC) 102 % of control | dose: 400.0 mg/kg/injection, schedule: Q01DX009 (ip), vehicle: carboxymethylcellulose (CMC) 101 % of control

Nc1ncc(C[P+](c2ccccc2)(c2ccccc2)c2ccccc2)c(N)n1
inactive: dose: 12.5 mg/kg/injection, schedule: Q04DX003 (ip), vehicle: Klucel (hydroxypropylcellulose) (HPC) 102 % of control | dose: 25.0 mg/kg/injection, schedule: Q04DX003 (ip), vehicle: Klucel (hydroxypropylcellulose) (HPC) 112 % of control | [4] 105 % of control

Nc1nc(N)c2cc(N3CCCC3c3ccc(Cl)c(Cl)c3)ccc2n1 (stereo not drawn)
inactive: dose: 1.56 mg/kg/injection, schedule: Q01DX009 (ip), vehicle: water 103 % of control | dose: 3.12 mg/kg/injection, schedule: Q01DX009 (ip), vehicle: water 110 % of control | dose: 6.25 mg/kg/injection, schedule: Q01DX009 (ip), vehicle: water 98 % of control

CCN(CC)CCOC(=O)c1ccco1
inactive: [1] 96 % of control | [2] 103 % of control | [3] 100 % of control

O=C1CC=Nc2ccc([N+](=O)[O-])cc21
inactive: [5] 101 % of control | [6] 98 % of control | [7] 97 % of control | [8] 109 % of control | [9] 101 % of control | dose: 400.0 mg/kg/injection, schedule: Q04DX003 (ip), vehicle: Klucel (hydroxypropylcellulose) (HPC) 108 % of control

C=CCCCCCCCCCC
inactive: [4] 97 % of control | dose: 100.0 mg/kg/injection, schedule: Q01DX001 (ip), vehicle: saline 98 % of control | [6] 95 % of control | dose: 200.0 mg/kg/injection, schedule: Q01DX001 (ip), vehicle: saline 101 % of control | [8] 97 % of control | dose: 400.0 mg/kg/injection, schedule: Q01DX001 (ip), vehicle: saline 96 % of control

COc1cc(C)c(C=O)cc1OC
inactive: dose: 5.0 mg/kg/injection, schedule: Q01DX001 (ip), vehicle: saline 103 % of control | dose: 10.0 mg/kg/injection, schedule: Q01DX001 (ip), vehicle: saline 107 % of control | dose: 20.0 mg/kg/injection, schedule: Q01DX001 (ip), vehicle: saline 97 % of control | dose: 40.0 mg/kg/injection, schedule: Q01DX001 (ip), vehicle: saline 101 % of control | dose: 80.0 mg/kg/injection, schedule: Q01DX001 (ip), vehicle: saline 109 % of control

[Cl][Pd]([Cl])([Cl])[Cl]
inactive: dose: 12.5 mg/kg/injection, schedule: Q04DX003 (ip), vehicle: saline 95 % of control | dose: 25.0 mg/kg/injection, schedule: Q04DX003 (ip), vehicle: saline 98 % of control | dose: 50.0 mg/kg/injection, schedule: Q04DX003 (ip), vehicle: saline 102 % of control | [10] 90 % of control

Oc1cncc2ccccc12
inactive: [10] 94 % of control | dose: 400.0 mg/kg/injection, schedule: Q04DX003 (ip), vehicle: saline 90 % of control

Nc1ncnc2c1ncn2C1OC(COP(=O)(O)OCC(N)Cc2ccccc2)C(O)C1O (stereo not drawn)
inactive: dose: 100.0 mg/kg/injection, schedule: Q01DX005 (ip), vehicle: saline 87 % of control | dose: 200.0 mg/kg/injection, schedule: Q01DX005 (ip), vehicle: saline 107 % of control

Cc1ccc(S(=O)(=O)N(CCC#N)CCC#N)cc1
inactive: dose: 25.0 mg/kg/injection, schedule: Q01DX009 (ip), vehicle: Klucel (hydroxypropylcellulose) (HPC) 106 % of control | dose: 50.0 mg/kg/injection, schedule: Q01DX009 (ip), vehicle: Klucel (hydroxypropylcellulose) (HPC) 112 % of control | [5] 97 % of control and 101 % of control | [7] 92 % of control | [9] 96 % of control

Clc1ccc2nc(Cl)c(Cl)nc2c1
inactive: [6] 91 % of control | [8] 96 % of control

CCOC1c2cnc(C)n2C=CN1C(C)=O (stereo not drawn)
inactive: dose: 50.0 mg/kg/injection, schedule: Q01DX009 (ip), vehicle: water 96 % of control | dose: 100.0 mg/kg/injection, schedule: Q01DX009 (ip), vehicle: water 94 % of control | dose: 100.0 mg/kg/injection, schedule: Q04DX003 (ip), vehicle: water 116 % of control | dose: 200.0 mg/kg/injection, schedule: Q04DX003 (ip), vehicle: water 115 % of control

COC(=O)C1=CNC=C(C(=O)OC)C1c1ccccc1
inactive: [11] 96 % of control | [12] 96 % of control | [13] 98 % of control

CSc1nc(Cl)cc(N2CC2)n1
inactive: dose: 0.39 mg/kg/injection, schedule: Q01DX009 (ip), vehicle: saline 106 % of control | dose: 0.78 mg/kg/injection, schedule: Q01DX009 (ip), vehicle: saline 97 % of control | dose: 0.78 mg/kg/injection, schedule: Q04DX003 (ip), vehicle: saline 107 % of control | dose: 1.56 mg/kg/injection, schedule: Q01DX001 (ip), vehicle: saline 101 % of control | dose: 1.56 mg/kg/injection, schedule: Q04DX003 (ip), vehicle: saline 101 % of control | dose: 3.12 mg/kg/injection, schedule: Q01DX001 (ip), vehicle: saline 101 % of control | dose: 59.0 mg/kg/injection, schedule: Q01DX Z (ip), vehicle: methylcellulose (MC) 94 % of control | dose: 88.0 mg/kg/injection, schedule: Q01DX Z (ip), vehicle: methylcellulose (MC) 93 % of control

COP(=NC(C)=O)(OC)OC
inactive: dose: 100.0 mg/kg/injection, schedule: Q01DX009 (ip), vehicle: saline with Tween-80 101 % of control | [11] 97 % of control | dose: 200.0 mg/kg/injection, schedule: Q01DX009 (ip), vehicle: saline with Tween-80 101 % of control | [12] 104 % of control | dose: 400.0 mg/kg/injection, schedule: Q01DX009 (ip), vehicle: saline with Tween-80 102 % of control | [13] 106 % of control

Nc1ccc(-c2ccc(Br)cc2)cc1
inactive: dose: 75.0 mg/kg/injection, schedule: Q01DX001 (ip), vehicle: carboxymethylcellulose (CMC) 101 % of control | dose: 150.0 mg/kg/injection, schedule: Q01DX001 (ip), vehicle: carboxymethylcellulose (CMC) 100 % of control
